Measurements from ChEMBL document CHEMBL1201862, “PubChem BioAssay data set” (2004).
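Where inhibition never reached the appropriate level, the endpoint shown equals the highest concentration tested. Otherwise, values were interpolated linearly from a five-concentration, 48-hour dose response in 96-well plates. GI50 = concentration required for 50% inhibition of growth.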 Calls of active or inactive are those of the source. Rule as the data show it: active = GI50 up to about 1.1 µM and inactive = higher.

Columns and labels:
Test in all cases: DTP human tumour cell line panel, 48 h
HOP-92 = test system: HOP-92
OVCAR-8 = test system: OVCAR-8
BT-549 = test system: BT-549
T47D = test system: T47D
NCI/ADR-RES = test system: NCI/ADR-RES
SK-MEL-2 = test system: SK-MEL-2
UACC-257 = test system: UACC-257
NCI-H522 = test system: NCI-H522
MOLT-4 = test system: MOLT-4
UACC-62 = test system: UACC-62
HL-60 = test system: HL-60
LOX IMVI = test system: LOX IMVI
OVCAR-4 = test system: OVCAR-4
SW-620 = test system: SW-620
RPMI-8226 = test system: RPMI-8226
RXF 393 = test system: RXF 393
COLO 205 = test system: COLO 205
ACHN = test system: ACHN
M14 = test system: M14
NCI-H23 = test system: NCI-H23

Measured: GI50

CC12CCC(C(Nc3ccccn3)C1=O)C2(C)C (stereo not given)
inactive: HOP-92 > 100 µM | OVCAR-8 > 100 µM | BT-549 > 100 µM | T47D > 100 µM | NCI/ADR-RES > 100 µM | SK-MEL-2 > 100 µM | UACC-257 > 100 µM | NCI-H522 > 100 µM | MOLT-4 > 100 µM | UACC-62 > 100 µM | HL-60 > 100 µM | LOX IMVI > 100 µM | OVCAR-4 > 100 µM | SW-620 > 100 µM | RPMI-8226 > 100 µM | RXF 393 > 100 µM | COLO 205 > 100 µM | ACHN > 100 µM | M14 > 100 µM | NCI-H23 > 100 µM

Nc1nc(Cl)c(N)c(NCC2(CO)CCC2)n1
inactive: HOP-92 76 µM | OVCAR-8 > 100 µM | BT-549 > 100 µM | T47D 91.8 µM | NCI/ADR-RES > 100 µM | SK-MEL-2 > 100 µM | UACC-257 > 100 µM | NCI-H522 69.7 µM | MOLT-4 > 100 µM | UACC-62 > 100 µM | HL-60 > 100 µM | LOX IMVI > 100 µM | OVCAR-4 > 100 µM | SW-620 > 100 µM | RPMI-8226 > 100 µM | RXF 393 > 100 µM | COLO 205 > 100 µM | ACHN > 100 µM | M14 > 100 µM | NCI-H23 94.2 µM

CCOC(=O)c1c(-c2ccccc2)[nH]c2ccc(Cl)cc2c1=O
inactive: HOP-92 22 µM | OVCAR-8 31.8 µM | BT-549 30.8 µM | T47D 23.7 µM | NCI/ADR-RES 32.2 µM | SK-MEL-2 34 µM | UACC-257 36 µM | NCI-H522 28 µM | MOLT-4 28.3 µM | UACC-62 37.7 µM | HL-60 28.2 µM | LOX IMVI 37.4 µM | OVCAR-4 20.5 µM | SW-620 > 100 µM | RPMI-8226 36.9 µM | RXF 393 35 µM | COLO 205 47.5 µM | ACHN 27.6 µM | M14 49.9 µM | NCI-H23 41.1 µM

Nc1nc(O)nc2c1ncn2C1OC(CO)C(O)C1O (stereo not given)
inactive: HOP-92 57.1 µM | OVCAR-8 23.8 µM | BT-549 > 100 µM | T47D 25.1 µM | NCI/ADR-RES 22.6 µM | SK-MEL-2 64.4 µM | UACC-257 > 100 µM | NCI-H522 > 100 µM | MOLT-4 26.1 µM | UACC-62 > 100 µM | HL-60 22 µM | LOX IMVI 38.8 µM | OVCAR-4 37 µM | SW-620 50.7 µM | RPMI-8226 61.7 µM | RXF 393 72.3 µM | COLO 205 > 100 µM | ACHN 78.9 µM | M14 39.9 µM | NCI-H23 > 100 µM
